“Also recorded” adds a separate entry of the source.
Key:
[1] = system: CD8+ T cells of HLA-A2+ human donors; type: cell-based; parameters: key to response compared with WT peptide control, DC model: *: Lower response than WT peptide
[2] = system: splenocytes of WT-vaccinated HLA-A2 tg mice; type: cell-based, mouse; parameters: key to response compared with WT peptide control, mouse splenocytes: *: Lower response than WT peptide
[3] = target: T1, HLA-A*0201 (Homo sapiens, UniProt P04439, D140Y/D185E/D98H/E176V/E277Q/G131W/G231S/I119V/I121R/I166T/I218V/L300P/L318F/N151K/N90K/P208A/P217A/Q86G/Q94H/R138H/R169H/T345S); type: binding
T1 construct: Soluble MHC was dissolved in PBS containing 0.5 mg/ml bovine γ-globulin; made in house

[4] = system: HLA-A2 transgenic mice; details: mouse, in vivo; for IFN-γ ELISpot response after restimulation with WT peptide / IFN-γ ELISpot response after restimulation with homologous peptide: sc
[5] = system: […]-specific T cell clone; type: cell-based

Substance	DC model: IFN-γ-positive CD8+ T cells, Average [1]	Mouse splenocytes (ex vivo assay), Average [2]	FP binding score, percentage inhibition of tracer peptide binding, 4h [3]	FP binding score, percentage inhibition of tracer peptide binding, 24h [3]	rank by T cell activation, mouse splenocytes [2]	further results
G[2-AOC]LGFVFT[PRG] [G26]	0.45	61	60%	54%	–	rank by T cell activation, DC model [1]: Upper 3; IFN-γ ELISpot response after restimulation with WT peptide [4]: do not always react to restimulation with WT peptide
NMLSTVLGV [NWT, reference compound]	0.04	436	53%	46%	–	proportion of vaccinated mice that respond [4]: approximately one out of six
[3-PYRA]ILGFVFT[2-AOC] [G29]	0.12	39	44%	38%	–	–
[3-PYRA]MLSTVLGV [N43]	0.06	108	47%	41%	–	–
[3-PYRA]MLSTVLG[2-AOC] [N8]	0.01	1	85%	82%	Lower 3	rank by T cell activation, DC model [1]: Lower 3
[3-PYRA]MYSDFHFI [F100]	–	104	79%	73%	Upper 3	T cell (IFN-γ) response of vaccinated HLA-A2 tg mice, restimulation not specified or both [4]: improved T cell responses; also recorded: higher homologous and heterologous responses; IFN-γ ELISpot response after restimulation with WT peptide [4]: higher responses compared to WT-peptide vaccination; also recorded: higher IFN-γ responses than WT peptide-vaccinated mice
[3-THI]MLSTVLG[2-AOC] [N98]	0.04	93	83%	79%	–	–
[3-THI][2-AOC]YSDFHFI [F102]	0.06	96	92%	91%	Upper 3	rank by T cell activation, DC model [1]: Lower 3; response compared with WT peptide control, mouse splenocytes [2]: F102 ^*
[4-FPHE]MYSDFHFI [F105]	0.08	62	86%	78%	–	–
[4-FPHE][2-AOC]LSTVLGV [N95]	0.07	3	92%	90%	–	–
[4-PYRA]ILGFVFTL [G15]	0.17	53	–	–	–	rank by T cell activation, DC model [1]: Upper 3; response compared with WT peptide control, DC model [1]: G15 ^*; T cell clone: percentage of IFN-γ producing T cells, Average [5]: 33.4%
[4-pyra]ILGFVFTL [G10]	0.14	47	–	–	–	T cell clone: percentage of IFN-γ producing T cells, Average [5]: 45.4%
[CSME][2-AOC]LSTVLGV [N169]	0.09	366	89%	87%	–	rank by T cell activation, DC model [1]: Upper 3
[NLE]MLSTVLGV [N52]	0.03	341	54%	46%	–	–
[NVA]MLSTVLG[2-AOC] [N15]	0.07	3	71%	65%	Lower 3	–
[SOME][2-AOC]LSTVLGV [N92]	0.04	380	84%	81%	Upper 3	response compared with WT peptide control, mouse splenocytes [2]: N92 ^*; IFN-γ ELISpot response after restimulation with WT peptide [4]: did not respond to restimulation; IFN-γ ELISpot response after restimulation with homologous peptide [4]: did not respond to restimulation
[THR-BZL]MLSTVLGV [N176]	0.03	355	73%	70%	–	–
[THR-BZL]MYSDFHFI [F142]	0.08	79	80%	77%	–	–
[am-phg]MLSTVLGV [N46]	0.02	363	80%	76%	–	rank by T cell activation, DC model [1]: Lower 3; binding score [3]: 81%; number of mice responding to WT peptide restimulation [4]: no responders; number of mice responding to homologous peptide restimulation [4]: four; IFN-γ ELISpot response after restimulation with WT peptide [4]: reduced to zero; also recorded: do not always react to restimulation with WT peptide; IFN-γ ELISpot response after restimulation with homologous peptide [4]: increased the responses compared to vaccination with WT peptide
[am-phg]MLSTVLG[2-AOC] [N11]	0.03	3	90%	88%	Lower 3	rank by T cell activation, DC model [1]: Lower 3
[am-phg]MYSDFHFI [F111]	0.08	86	75%	72%	–	binding score [3]: 72%; T cell (IFN-γ) response of vaccinated HLA-A2 tg mice, restimulation not specified or both [4]: improved T cell responses; also recorded: improved immunogenicity; also recorded: higher homologous and heterologous responses; IFN-γ ELISpot response after restimulation with WT peptide [4]: higher responses compared to WT-peptide vaccination; also recorded: higher IFN-γ responses than WT peptide-vaccinated mice
[am-phg]MYSDFHF[2-AOC] [F7]	0.13	54	91%	90%	Lower 3	–
[am-phg][CpALA]LGFVFTL [G27]	0.1	35	92%	91%	–	–
[am-phg][NVA]YSDFHFI [F193]	–	–	85%	81%	–	T cell (IFN-γ) response of vaccinated HLA-A2 tg mice, restimulation not specified or both [4]: lowest homologous and heterologous responses; IFN-γ ELISpot response after restimulation with WT peptide [4]: only showed higher responses than WT peptide at a vaccination dose of 25 nmol
yILGFVFTL [G9]	0.11	20	–	–	Lower 3	T cell clone: percentage of IFN-γ producing T cells, Average [5]: 1.1%; rank by T cell activation, T cell clone [5]: Lower 3

From paper PMC4917206, “Chemical Modification of Influenza CD8+ T-Cell Epitopes Enhances Their Immunogenicity Regardless of Immunodominance” (PLoS ONE, 2016)
